Experimental data published in patent publication US8586600B2, “Heterocyclic compounds and uses thereof” (Celgene Avilomics Research, Inc., priority 2007, dated 2013).
Where two headings read alike, the source gives them in different places. Blank lines part the entries; values can stand above or below the compound they belong to.

How the values were obtained:
[1] = target: T1, c-KIT kinase (Homo sapiens (Human), UniProt P10721); assay: cKit inhibition assay Method C (electrophoretic mobility shift); assay type: biochemical; settings: read-out: c-KIT % Inhibition
T1 sequence (P10721 26-976): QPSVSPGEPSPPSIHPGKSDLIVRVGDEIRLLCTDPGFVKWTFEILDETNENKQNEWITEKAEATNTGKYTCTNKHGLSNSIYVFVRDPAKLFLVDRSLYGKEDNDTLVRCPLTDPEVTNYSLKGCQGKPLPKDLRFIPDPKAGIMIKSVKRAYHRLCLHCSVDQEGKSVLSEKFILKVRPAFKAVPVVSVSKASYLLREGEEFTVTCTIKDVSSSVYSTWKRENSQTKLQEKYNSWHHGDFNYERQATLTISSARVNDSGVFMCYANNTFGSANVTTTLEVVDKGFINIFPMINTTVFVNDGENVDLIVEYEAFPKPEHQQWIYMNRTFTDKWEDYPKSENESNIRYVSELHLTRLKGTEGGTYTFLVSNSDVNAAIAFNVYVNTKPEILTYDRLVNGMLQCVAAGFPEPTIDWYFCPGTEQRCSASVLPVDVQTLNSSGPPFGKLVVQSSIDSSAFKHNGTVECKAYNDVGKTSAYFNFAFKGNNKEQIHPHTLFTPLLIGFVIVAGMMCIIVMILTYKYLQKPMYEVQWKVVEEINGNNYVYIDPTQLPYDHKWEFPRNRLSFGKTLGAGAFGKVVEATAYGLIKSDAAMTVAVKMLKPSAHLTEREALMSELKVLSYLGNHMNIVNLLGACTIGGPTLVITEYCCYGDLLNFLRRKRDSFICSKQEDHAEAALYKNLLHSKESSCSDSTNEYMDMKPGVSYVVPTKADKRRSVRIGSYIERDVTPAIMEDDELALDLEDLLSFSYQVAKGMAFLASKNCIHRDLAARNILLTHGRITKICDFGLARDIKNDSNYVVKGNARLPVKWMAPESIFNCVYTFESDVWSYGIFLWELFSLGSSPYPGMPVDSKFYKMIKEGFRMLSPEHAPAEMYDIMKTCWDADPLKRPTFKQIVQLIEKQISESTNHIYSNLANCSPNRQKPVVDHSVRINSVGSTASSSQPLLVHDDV
Procedure: The reaction was started by adding the ATP and incubating for 1 hour at room temperature. […] Phosphorylated and unphosphorylated substrate was separated by charge using electrophoretic mobility shift. Product formed was compared to control wells to determine inhibition or enhancement of enzyme activity.

[2] = target: T2, c-KIT (V654A) (Homo sapiens (Human), UniProt P10721, V654A); assay: c-Kit (V654A) Omnia assay for potency assessment (Method E); assay type: biochemical; settings: [ATP]=220 μM, read-out: Mutant c-KIT (V654A) IC50 Apparent
T2 sequence (P10721 26-976 V654A): as the sequence (P10721 26-976) above, with V629A counted along it
Procedure: (§1) Kinase reactions were started with the addition of 45 μL of the Y9 or Y12-Sox peptide substrate and monitored every 30-90 seconds for 60 minutes at λex360/λem485 in a Synergy^4 plate reader from BioTek (Winooski, Vt.).

[3] = target: PDGFR-α (Homo sapiens (Human), UniProt P16234); assay: PDGFR inhibition assay Method B (Z'-LYTE biochemical assay); settings: compound at 1 μM
Sequence of PDGFR-α (P16234 24-1089): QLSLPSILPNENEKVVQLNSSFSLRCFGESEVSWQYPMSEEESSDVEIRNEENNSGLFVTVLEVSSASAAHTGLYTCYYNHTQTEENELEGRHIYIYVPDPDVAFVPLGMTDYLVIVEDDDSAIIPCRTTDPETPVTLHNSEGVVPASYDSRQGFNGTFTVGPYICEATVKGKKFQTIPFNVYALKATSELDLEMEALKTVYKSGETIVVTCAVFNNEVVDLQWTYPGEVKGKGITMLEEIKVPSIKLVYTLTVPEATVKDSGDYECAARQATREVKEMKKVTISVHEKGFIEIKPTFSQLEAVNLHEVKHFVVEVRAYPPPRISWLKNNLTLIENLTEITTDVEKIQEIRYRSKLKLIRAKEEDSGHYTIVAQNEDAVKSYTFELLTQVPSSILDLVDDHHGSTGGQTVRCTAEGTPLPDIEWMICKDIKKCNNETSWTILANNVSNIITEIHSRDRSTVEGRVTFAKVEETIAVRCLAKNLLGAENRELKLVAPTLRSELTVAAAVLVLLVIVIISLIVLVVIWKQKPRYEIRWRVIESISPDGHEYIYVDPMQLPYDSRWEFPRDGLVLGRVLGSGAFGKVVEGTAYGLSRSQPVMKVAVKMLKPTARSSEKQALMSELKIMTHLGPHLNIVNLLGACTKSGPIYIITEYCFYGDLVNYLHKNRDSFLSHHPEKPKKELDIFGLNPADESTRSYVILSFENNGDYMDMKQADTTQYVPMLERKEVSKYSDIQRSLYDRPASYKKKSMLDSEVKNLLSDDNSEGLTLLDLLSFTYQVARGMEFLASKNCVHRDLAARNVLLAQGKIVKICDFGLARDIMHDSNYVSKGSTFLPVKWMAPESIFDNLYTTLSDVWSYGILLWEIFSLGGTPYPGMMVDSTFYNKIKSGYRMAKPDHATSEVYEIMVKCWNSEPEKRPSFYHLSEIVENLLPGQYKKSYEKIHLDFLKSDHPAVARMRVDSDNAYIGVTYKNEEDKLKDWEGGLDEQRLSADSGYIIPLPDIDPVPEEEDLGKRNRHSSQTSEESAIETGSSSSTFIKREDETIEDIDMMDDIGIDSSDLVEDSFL
Description: The Z'-LYTE™ biochemical assay employs a fluorescence-based, coupled-enzyme format and is based on the differential sensitivity of phosphorylated and non-phosphorylated peptides to proteolytic cleavage.

[4] = target: T2, c-KIT (V654A); assay: c-Kit (V654A) Omnia assay with pre-activated enzyme (Method D); assay type: biochemical; settings: [ATP]=100 μM, read-out: Mutant c-KIT (V654A) IC50
Procedure: as §1, with “10× enzyme/ATP stocks were pre-incubated for 30 min at room temperature to pre-activate each enzyme prior to compound exposure. […] Kinase” for “Kinase”

[5] = target: T1, c-KIT kinase; assay: c-KIT mass spectral analysis of tryptic digest (MALDI-TOF); assay type: binding; settings: 3 hours incubation at 10× excess of compound
Procedure: Iodoacetamide was used as the alkylating agent after compound incubation. […] For tryptic digests a 5 μl aliquot (14 pmols) was diluted with 10 ul of 0.1% TFA prior to micro C18 Zip Tipping directly onto the MALDI target using alpha cyano-4-hydroxy cinnamic acid as the matrix (5 mg/ml in 0.1% TFA:acetonitrile 50:50).
The tryptic digest was analyzed by mass spectrometer (MALDI-TOF).

[6] = target: c-KIT (T670I) (Homo sapiens (Human), UniProt P10721, T670I); assay: c-Kit (T670I) Omnia assay for potency assessment (Method E); assay type: biochemical; settings: [ATP]=220 μM, read-out: Mutant c-KIT (T670I) IC50 Apparent
Sequence of c-KIT (T670I) (P10721 26-976 T670I): as the sequence (P10721 26-976) above, with T645I counted along it
Procedure: as §1

Structure (SMILES): C=CC(=O)Nc1ccc(C(=O)Nc2ccc(C)c(Nc3nccc(-c4cccnc4)n3)c2)cc1C(F)(F)F [II-2]
IC50 [2]: 83 nM

Structure (SMILES): C/C=C/C(=O)Nc1ccc(C(=O)Nc2ccc(C)c(Nc3nccc(-c4cccnc4)n3)c2)cc1 [II-4]
inhibition at 1 µM [3]: 28%

Structure (SMILES): Cc1ccc(NC(=O)c2ccc(NC(=O)COC(=O)c3c(Cl)cccc3Cl)cc2)cc1Nc1nccc(-c2cccnc2)n1 [II-26]
inhibition at 1 µM ([1]; compound at 1 μM, 300 μM ATP): 94%

Structure (SMILES): C=CC(=O)NCc1ccc(C(=O)Nc2ccc(C)c(Nc3nccc(-c4cccnc4)n3)c2)cc1 [II-6, 4-(Acryloylaminomethyl)-N-[4-methyl-3-(4-pyridin-3-ylpyrimidin-2-ylamino)phenyl]benzamide]
inhibition at 1 µM ([1]; compound at 1 μM, 300 μM ATP): 91%

Structure (SMILES): Cc1ccc(C(=O)Nc2ccc(NC(=O)CCl)c(C(F)(F)F)c2)cc1Nc1nccc(-c2cccnc2)n1 [III-14]
covalent modification of c-KIT (mass spectral analysis) [5]: covalently bound to c-KIT protein at two target cystein residues: Cys808 (minor) and Cys788 (major)

Structure (SMILES): Cc1ccc(NC(=O)c2ccc(NS(=O)(=O)c3cnccc3Cl)cc2)cc1Nc1nccc(-c2cccnc2)n1 [II-40]
IC50 [4]: 10000 nM

Structure (SMILES): Cc1ccc(NC(=O)c2ccc(CN3C(=O)C=CC3=O)cc2)cc1Nc1nccc(-c2cccnc2)n1 [II-8, 4-(2,5-Dioxo-2,5-dihydropyrrol-1-ylmethyl)-N-[4-methyl-3-(4-pyridin-3-yl-pyrimidin-2-ylamino)-phenyl]benzamide]
inhibition at 1 µM ([1]; compound at 1 μM, 300 μM ATP): 78%

Structure (SMILES): Cc1ccc(NC(=O)c2ccc(NC(=O)/C=C/CN(C)C)cc2)cc1Nc1nccc(-c2cccnc2)n1 [II-5]
inhibition at 1 µM ([1]; compound at 1 μM, 300 μM ATP): 66%

Further lines, results first:

inhibition at 1 µM [1]: 95%
Structure (SMILES): C=CC(=O)Nc1ccc2cc(C(=O)Nc3ccc(C)c(Nc4nccc(-c5cccnc5)n4)c3)ccc2c1 [II-44, 6-Acryloylaminonaphthalene-2-carboxylic acid[4-methyl-3-(4-pyridin-3-ylpyrimidin-2-ylamino)phenyl]amide]

IC50 [4]: 10000 nM
Structure (SMILES): Cc1ccc(NC(=O)c2ccc(NC(=O)C(C)Cl)cc2)cc1Nc1nccc(-c2cccnc2)n1 (centres unmarked) [II-54]

IC50 [2]: 173 nM
Structure (SMILES): Cc1ccc(NC(=O)c2ccc(NS(=O)(=O)c3ccc(Cl)nc3)cc2)cc1Nc1nccc(-c2cccnc2)n1 [II-41]

IC50 [2]: 260 nM | IC50 [4]: 937 nM
Structure (SMILES): Cc1ccc(NC(=O)c2ccc(NC(=O)CCl)cc2)cc1Nc1nccc(-c2cccnc2)n1 [II-53]

IC50 [6]: 1570 nM | IC50 [2]: 216 nM | IC50 [4]: 3990 nM
Structure (SMILES): Cc1ccc(C(=O)Nc2ccc(NC(=O)/C=C/CN(C)C)c(C(F)(F)F)c2)cc1Nc1nccc(-c2cccnc2)n1 [III-6]

IC50 [4]: 9150 nM
Structure (SMILES): Cc1ccc(NC(=O)c2ccc(NC(=O)/C=C/CN(C)C)c(C(F)(F)F)c2)cc1Nc1nccc(-c2cccnc2)n1 [II-55]
